Assay results: patent US10744351B2 (priority 2009, dated 2020)

Tested on: influenza virus (influenza A/Kitakyusyu/159/93(H3N2))
Assay type: biochemical

Row | Compound | HA titer
1 | silver(I) iodide | 64
2 | [Cu+].[I-] [COPPER(I) IODIDE, copper(I) iodide] | 16
3 | [I-].[I-].[Pt+2] [PLATINUM(II) IODIDE, platinum(II) iodide] | <2
4 | N#C[S-].[Cu+] [COPPER(I) THIOCYANATE, copper(I) thiocyanate] | 2
5 | [I][Pd][I] [PALLADIUM(II) IODIDE, palladium(II) iodide] | 4
